This is an account of results in publication PMC10328743, “5-Nitro-3-(2-(4-phenylthiazol-2-yl)hydrazineylidene)indolin-2-one derivatives inhibit HIV-1 replication by a multitarget mechanism of action” (Frontiers in Cellular and Infection Microbiology, 2023).

Like-named read-outs stand apart in the source and are kept apart here. Some results are limits rather than exact numbers.

Data set [1] concerns the target T1, HIV-1 RT-associated RNase H (Human immunodeficiency virus type 1 group M subtype B, UniProt P04585).
T1 construct: The 1:1 ratio between the p66/p51 subunits was also verified; His tag (implied only by Ni-NTA IMAC purification); made in house; host or cells: Escherichia coli M15
The experiment in a line: HIV-1 DNA polymerase-independent RNase H activity determination. It counts as biochemical. As for the experimental part:
(§1) Escherichia coli strain M15 containing the p6HRT-prot vector (provided by Stuart Le Grice laboratory (NCI Frederick)) was grown to an optical density at 600 nm of 0.7 and induced with 1.7 mM of isopropyl β-D-1-thiogalactopyranoside (IPTG) for 4 h. Protein purification was carried out with a BioLogic LP system (Bio-Rad, Hercules, CA, USA) using a combination of immobilized metal affinity chromatography (IMAC) and ion exchange chromatography. Cell pellets were resuspended in lysis buffer (50 mM of sodium phosphate buffer, pH 7.8, containing 0.5 mg/mL of lysozyme), incubated on ice for 20 min, and, after the addition of NaCl to a final concentration of 0.3 M, were sonicated and centrifuged at 30,000 ×g for 1 h. The supernatant was loaded onto a Ni^2+-NTA-Sepharose column pre-equilibrated with loading buffer (50 mM of sodium phosphate buffer, pH 7.8, containing 0.3 M of NaCl, 10% glycerol, and 10 mM of imidazole) and washed thoroughly with wash buffer (50 mM of sodium phosphate buffer, pH 6.0, containing 0.3 M of NaCl, 10% glycerol, and 80 mM of imidazole). RT was eluted with an imidazole gradient in the wash buffer (0–0.5 M). Fractions were collected, and protein purity was checked by sodium dodecyl sulfate–polyacrylamide gel electrophoresis (SDS-PAGE) and found to be higher than 90%. The 1:1 ratio between the p66/p51 subunits was also verified. Enzyme-containing fractions were pooled and diluted 1:1 with 50 mM of sodium phosphate buffer, pH 7.0, containing 10% glycerol, and then loaded into a Hi-trap heparin HP GE (Healthcare LifeScience) pre-equilibrated with 10 column volumes of loading buffer (50 mM of sodium phosphate buffer, pH 7.0, containing 10% glycerol, and 150 mM of NaCl). The column was then washed with loading buffer, and the RT was eluted with Elute Buffer 2 (50 mM of sodium phosphate, pH 7.0, 10% glycerol, 1 M of NaCl). Fractions were collected, and the protein was dialyzed and stored in a buffer containing 50 mM of Tris-HCl, pH 7.0, 25 mM of NaCl, 1 mM of EDTA, and 50% glycerol. Catalytic activities and protein concentrations were determined. Enzyme-containing fractions were pooled, and aliquots were stored at −80°C.
HIV RT-associated RNase H activity was measured as described ([Corona et al., 2016b]) in a 100-µl reaction volume containing 50 mM of Tris-HCl buffer, pH 7.8, 6 mM of MgCl2, 1 mM of dithiothreitol (DTT), 80 mM of KCl, 0.25 µM of hybrid RNA/DNA 5′-[…]-Fluorescin-3′ (high-performance liquid chromatography (HPLC), dry, QC: Mass Check) (available from Metabion) 5′-Dabcyl-[…]-3′ (HPLC, dry, QC: Mass Check), increasing concentrations of inhibitors, whose dilution were made in water, and different amounts of enzymes according to a linear range of the dose–response curve. The reaction mixture was incubated for 1 h at 37°C and stopped by the addition of EDTA, and products were measured with a multilabel counter plate reader Victor 3 equipped with filters for 490/528 nm.

For the next data set, the target named is T2, HIV-1 RT-associated RDDP (Human immunodeficiency virus type 1 group M subtype B, UniProt P04585).
T2 construct: The 1:1 ratio between the p66/p51 subunits was also verified; His tag (implied only by Ni-NTA IMAC purification); made in house; host or cells: Escherichia coli M15
Briefly: HIV-1 RNA-dependent DNA polymerase activity determination. It counts as biochemical. As for the experimental part: as §1
RDDP activity was measured as previously reported in 25-µl volume containing 60 mM of Tris‐HCl buffer, pH 8.1, 8 mM of MgCl2, 60 mM of KCl, 13 mM of DTT, 2.5 µM of poly(A)-oligo(dT), 100 µM of dTTP, increasing concentrations of inhibitors, whose dilution were made in water, and different amounts of enzymes according to a linear range of the dose–response curve. The reaction mixture was incubated for 30 min at 37°C and then stopped by the addition of EDTA. Reaction products were detected by pico green addition and measured with a multilabel counter plate reader Victor 3, equipped with filters for 502/523 nm.

A further data set has as its system HIV-1. Briefly: HIV-1 replication inhibition in MT4 cells. It counts as cell-based. The method, then:
(§2) HIV-1 replication was carried out in MT4 cells as previously reported ([Corona et al., 2016a]) using a molecular clone derived from the pNL4-3 ([Thierry et al., 2015]). A total of 120 ng of p24^gag antigen per 10^6 cells, corresponding to a multiplicity of infection (m.o.i.) of 0.3, was used for infection. […] Flow cytometry analysis was performed on a FACSCalibur flow cytometer (BD Biosciences, San Jose, CA, USA), and the results were analyzed using the […] software.

The nature of data set [2]: Viability of infected MT4 cells (cytotoxicity). It counts as cell-based. Conditions: human, infected MT4 cells viability, three independent experiments, average ± standard deviation. The method, then:
as §2

Setting [3] is: wt HIV-1 RT, three independent experiments, average ± standard deviation, read-out: RNase H IC50.
Where [4] appears, read: wt HIV-1 RT, three independent experiments, average ± standard deviation, read-out: RDDP IC50.
The mark [5] stands for this setting: Human immunodeficiency virus 1, MT4, viral replication in MT4 cells, three independent experiments, average ± standard deviation, read-out: HIV-1 EC50.
The mark [6] stands for this setting: Human immunodeficiency virus 1, MT4, read-out: HIV-1 EC50.

With `O=C1Nc2ccc(Cl)cc2C1=NNc1nc(-c2ccc(Cl)cc2)cs1` [1b], the concentration for half-maximal inhibition (IC50) in data set [1] (setting [3]) stood at 12 ± 2.3 µM; on HIV-1 RT-associated RDDP (setting [4]), 30 ± 7.5 µM. For the same compound, the EC50 in the data set on HIV-1 (setting [5]) is more than 100 µM. Also, the CC50 in data set [2] (MT4 cells infected with HIV-1) is more than 100 µM.
On to `Cn1c(-c2ccc(Cl)cc2)cs/c1=N\N=C1/C(=O)Nc2ccc([N+](=O)[O-])cc21` [1c], for which the IC50 in data set [1] (setting [3]) came to 8.2 ± 1 µM; on HIV-1 RT-associated RDDP (setting [4]) it was 24 ± 3 µM. Besides, the 50% effective concentration (EC50) with HIV-1 (setting [5]) is more than 42 µM. This compound gave a CC50 in data set [2] (MT4 cells infected with HIV-1) of 42 ± 8 µM.
Consider `O=C1Nc2ccc([N+](=O)[O-])cc2/C1=N/Nc1nc(-c2ccc(F)cc2)cs1` [2a], for which the values for the IC50 (in data set [1] (setting [3]); at HIV-1 RT-associated RDDP (setting [4])) were 5.1 ± 2 µM and 9.5 ± 0.5 µM, respectively. Besides, the concentration giving a half-maximal response (EC50) in the data set on HIV-1 (setting [5]) is more than 100 µM. For the same compound, the CC50 in data set [2] (MT4 cells infected with HIV-1) was more than 100 µM.
With `O=C1Nc2ccc(Cl)cc2/C1=N/Nc1nc(-c2ccc(F)cc2)cs1` [2b], the IC50 in data set [1] (setting [3]) turned out to be 4.5 ± 0.2 µM; at HIV-1 RT-associated RDDP (setting [4]), 7.5 ± 1.5 µM. For the same compound, the EC50 in the data set with HIV-1 (setting [5]) is more than 56 µM. The same compound returned a CC50 in data set [2] (MT4 cells infected with HIV-1) of 56 ± 6 µM.
Consider `Cn1c(-c2ccc(F)cc2)cs/c1=N\N=C1/C(=O)Nc2ccc([N+](=O)[O-])cc21` [2c], for which the IC50 in data set [1] (setting [3]) is 5.6 ± 0.6 µM; on HIV-1 RT-associated RDDP (setting [4]), 21 ± 1 µM. Moreover, in the data set on HIV-1 (setting [5]), the EC50 was more than 7 µM. For the same compound, it took 7 ± 1.6 µM to reach half-maximal cytotoxicity in data set [2] (MT4 cells infected with HIV-1) (CC50).
With `O=C1Nc2ccc(Cl)cc2/C1=N/Nc1nc(-c2ccc(Br)cc2)cs1` [3b], the IC50 in data set [1] (setting [3]) worked out at 4.4 ± 0.1 µM; at HIV-1 RT-associated RDDP (setting [4]) it was 8.3 ± 0.6 µM. The EC50 in the data set on HIV-1 (setting [5]) was more than 95 µM. The compound also registered a CC50 in data set [2] (MT4 cells infected with HIV-1) of 95 ± 14 µM.
The corresponding values for `Cn1c(-c2ccc(Br)cc2)cs/c1=N\N=C1/C(=O)Nc2ccc([N+](=O)[O-])cc21` [3c] are 7.7 ± 1.2 µM, 19.5 ± 3.3 µM, more than 25 µM and 25 ± 3.1 µM.
Consider `O=C1Nc2ccc([N+](=O)[O-])cc2/C1=N/Nc1nc(-c2ccc([N+](=O)[O-])cc2)cs1` [4a], for which the concentration for half-maximal inhibition (IC50) in data set [1] was 7.6 ± 1.4 µM; at HIV-1 RT-associated RDDP, 21 ± 3 µM. In addition, the EC50 in the data set with HIV-1 (setting [6]) is more than 100 µM. Also, the CC50 in data set [2] was more than 100 µM.
Turning to `O=C1Nc2ccc(Cl)cc2/C1=N/Nc1nc(-c2ccc([N+](=O)[O-])cc2)cs1` [4b], the IC50 in data set [1] (setting [3]) was found to be 15.3 ± 1.5 µM; at HIV-1 RT-associated RDDP (setting [4]), 14.9 ± 2.7 µM. Besides, the EC50 with HIV-1 (setting [5]) is more than 50 µM. In addition, the CC50 in data set [2] (MT4 cells infected with HIV-1) is 50 ± 12 µM.
Take `Cn1c(-c2ccc([N+](=O)[O-])cc2)cs/c1=N\N=C1/C(=O)Nc2ccc([N+](=O)[O-])cc21` [4c]: the IC50 in data set [1] came out at 1.9 ± 0.2 µM; at HIV-1 RT-associated RDDP it was 6 ± 0.5 µM. Moreover, the EC50 in the data set with HIV-1 (setting [6]) was more than 5.5 µM. The compound further displayed a CC50 in data set [2] of 5.5 ± 0.9 µM.
Consider `O=C1Nc2ccc([N+](=O)[O-])cc2/C1=N/Nc1nc(-c2ccc(-c3ccccc3)cc2)cs1` [5a], for which the values for the IC50 (in data set [1] (setting [3]); on HIV-1 RT-associated RDDP (setting [4])) were 7.1 ± 0.1 µM and 12 ± 3 µM, respectively. In the data set on HIV-1 (setting [5]), the EC50 is more than 100 µM. This compound yielded a CC50 in data set [2] (MT4 cells infected with HIV-1) of more than 100 µM.
On to `O=C1Nc2ccc(Cl)cc2/C1=N/Nc1nc(-c2ccc(-c3ccccc3)cc2)cs1` [5b], for which the half-maximal inhibitory concentration (IC50) is 13.2 ± 1.6 µM in data set [1] (setting [3]) and 38 ± 5 µM on HIV-1 RT-associated RDDP (setting [4]).
For the compound `Cn1c(-c2ccc(-c3ccccc3)cc2)cs/c1=N\N=C1/C(=O)Nc2ccc([N+](=O)[O-])cc21` [5c], the half-maximal inhibitory concentration (IC50) was found to be 6.1 ± 1.1 µM in data set [1] (setting [3]) and 11.4 ± 2.2 µM on HIV-1 RT-associated RDDP (setting [4]). For the same compound, the EC50 with HIV-1 (setting [5]) is more than 7 µM. Further, half-maximal cytotoxicity in data set [2] (MT4 cells infected with HIV-1) (CC50) was put at 7 ± 1.4 µM.
In the case of `N#Cc1ccc(-c2csc(N/N=C3\C(=O)Nc4ccc([N+](=O)[O-])cc43)n2)cc1` [6a], the IC50 in data set [1] (setting [3]) came to 6 ± 0.1 µM; on HIV-1 RT-associated RDDP (setting [4]), 9.3 ± 0.3 µM. Moreover, the EC50 with HIV-1 (setting [5]) was more than 100 µM. This compound also registered a cytotoxic concentration (CC50) in data set [2] (MT4 cells infected with HIV-1) of more than 100 µM.

The term IC50 denotes the point on the concentration scale where inhibition reaches its midpoint. Usually EC50 stands for the concentration that produces a half-maximal response. One may read the CC50 as the concentration that lowers cell viability or growth by half.
